Experimental data as given in PubChem BioAssay (NCI).
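Compound exposure: 48 hours, 5 concentrations, 96-well plates. GI50: concentration for 50% inhibition of growth. The concentration for full growth arrest is given as TGI.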

Experiments:
Assay in all cases: NCI-60 cell line screen, 48 h
MALME-3M melanoma = system: MALME-3M melanoma
M14 melanoma = system: M14 melanoma
RPMI-8226 leukemia = system: RPMI-8226 leukemia
NCI/ADR-RES ovarian = system: NCI/ADR-RES ovarian
MDA-MB-231 breast = system: MDA-MB-231 breast
HCT-15 colon = system: HCT-15 colon

Row | SMILES | GI50 (MALME-3M melanoma) | TGI (MALME-3M melanoma) | GI50 (M14 melanoma) | TGI (M14 melanoma) | GI50 (RPMI-8226 leukemia) | TGI (RPMI-8226 leukemia) | GI50 (NCI/ADR-RES ovarian) | TGI (NCI/ADR-RES ovarian) | GI50 (MDA-MB-231 breast) | TGI (MDA-MB-231 breast) | GI50 (HCT-15 colon) | TGI (HCT-15 colon)
1 | Nc1ccccc1NC(=O)c1ccc(CSc2nc(N3CCOCC3)c3cccn3n2)cc1 | 0.834 µM | > 100 µM | 0.756 µM | > 100 µM | 0.311 µM | 1.26 µM | 0.445 µM | > 100 µM | 0.806 µM | 11.7 µM | 0.588 µM | > 100 µM
2 | N=c1ccn2c(n1)OC1C(OP(=O)(O)O)C(CO)OC12 (stereo not drawn) | – | > 100 µM | – | > 45.8 µM | – | > 100 µM | – | > 100 µM | – | > 100 µM | – | > 100 µM
3 | CCC1CCc2nc3sc(C(=O)Nc4ccccc4F)c(N)c3cc2C1 (stereo not drawn) | 3.55 µM | > 100 µM | – | – | 0.94 µM | > 100 µM | 9.5 µM | > 100 µM | > 100 µM | > 100 µM | 0.401 µM | > 100 µM
4 | CCOC(=O)[C@H](CSSc1ncnc2cc[nH]c12)NC(=O)[C@@H](C)c1ccc2cc(OC)ccc2c1 | 4.02 µM | > 96.5 µM | 0.13 µM | > 62.1 µM | 0.282 µM | > 100 µM | 0.687 µM | > 100 µM | 1.08 µM | > 100 µM | 1.73 µM | > 100 µM
5 | C[C@H]1CCC/C=C/[C@@H]2C[C@H](O)C[C@H]2[C@H](O)[C@H](S(=O)c2ccc(O)cc2)CC(=O)O1 (stereo partly drawn) | 0.0202 µM | 0.0709 µM | 0.033 µM | > 100 µM | 0.0922 µM | 2.52 µM | 0.0174 µM | 0.0758 µM | 0.0245 µM | 0.0533 µM | 0.0443 µM | 1.69 µM
6 | CC(=O)O[C@H](C[C@H](C(C)C)N(C)C(=O)[C@@H](NC(=O)[C@H]1CCCCN1C)C(C)C)c1nc(C(=O)N[C@@H](Cc2ccccc2)C[C@H](C)C(=O)O)c(C)s1 | 4.56 µM | > 25 µM | < 0.0025 µM | > 25 µM | < 0.0025 µM | > 25 µM | 0.0574 µM | > 25 µM | < 0.0025 µM | > 25 µM | 0.00385 µM | > 25 µM
7 | O=C1C=C(Nc2ccccc2)c2ncccc2C1=O | 1.06 µM | 2.37 µM | 0.352 µM | 1.17 µM | 0.305 µM | 1.3 µM | 0.33 µM | 1.88 µM | 0.485 µM | 3.4 µM | 0.321 µM | 1.28 µM
8 | CCCCCCCCN(CCCCCCCC)C(=N)c1ccnc2ccccc12 | 1.12 µM | 2.59 µM | 0.336 µM | 1.36 µM | – | – | 1.15 µM | 2.5 µM | – | – | 0.348 µM | 1.33 µM
9 | C/C(=C\c1ccn(-c2ccc(N)c(C(F)(F)F)c2)n1)[C@@H]1C[C@@H]2O[C@]2(C)CCC[C@H](C)[C@H](O)[C@@H](C)C(=O)C(C)(C)[C@@H](O)CC(=O)O1 | 0.015 µM | 16.7 µM | – | – | < 0.0104 µM | 10.5 µM | 0.0624 µM | 8.31 µM | 0.134 µM | > 25 µM | 0.0109 µM | > 27.8 µM
10 | CC(C)C1C(=O)N2CCCC2C2(O)OC(NC(=O)C3C=C4c5cccc6[nH]cc(c56)CC4N(C)C3)(C(C)C)C(=O)N12 (stereo not drawn) | – | – | – | 75.5 µM | – | 47.9 µM | – | 57.5 µM | – | 34.3 µM | – | 54.9 µM
11 | CON(C)C(=O)C(Cc1ccccc1)NC(=O)OC(C)(C)C (stereo not drawn) | – | > 100 µM | – | > 100 µM | – | > 100 µM | – | > 100 µM | – | – | – | > 100 µM
12 | Cc1ccc(-c2csc(N(C(=O)N3CCN(c4cc5c(cc4F)c(=O)c(C(=O)O)cn5C4CC4)CC3)c3ccccc3)n2)cc1 | – | – | 0.394 µM | > 100 µM | 0.368 µM | > 100 µM | – | – | – | – | – | –
13 | CC(C)(Cl)CCC1=C(Cl)C(=O)c2ccccc2C1=O | – | – | 2.28 µM | 5.51 µM | 1.78 µM | 4.65 µM | 3.29 µM | 19.5 µM | 1.73 µM | 3.65 µM | 1.58 µM | 3.05 µM
14 | O=C1C2CC3C(CC2C(=O)[N]1[Sn]([c]1ccccc1)([c]1ccccc1)[c]1ccccc1)C1(Cl)C(Cl)=C(Cl)C3(Cl)C1(Cl)Cl (stereo not drawn) | 0.195 µM | 0.387 µM | 0.15 µM | 0.345 µM | 0.106 µM | 0.53 µM | – | – | 0.127 µM | 0.37 µM | 0.054 µM | 0.209 µM
15 | CCN1C(=O)N(CC)C2C1NN=c1s/c(=C3\C(=O)N(CCC(C)C)c4ccccc43)c(=O)n12 (stereo not drawn) | – | – | – | – | 1.68 µM | 5.77 µM | – | – | 1.66 µM | 3.42 µM | 1.31 µM | 3.75 µM
16 | COc1cc2[nH]c(C(=O)c3cc(OC)c(OC)c(OC)c3)c(N)c2cc1C#CCO | 0.143 µM | > 100 µM | – | – | 1.64 µM | 83.6 µM | 2.22 µM | 32.6 µM | 0.629 µM | > 100 µM | 0.432 µM | > 100 µM
17 | C=C1C(=O)O[C@@H]2[C@H]1CC[C@H](C)[C@]1(O)CCC(=O)[C@@]21C | – | > 10 µM | – | – | – | > 10 µM | – | > 10 µM | – | – | – | > 10 µM
